This is an account of results in EP4559908A1, “HETEROARYL DERIVATIVE COMPOUND AND USE THEREOF” (S2CBio Inc., priority 2022, dated 2024).

Like-named read-outs stand apart in the source and are kept apart here. Bounds are passed on as bounds.

The target in the experiment is T1, human ANO6 (variant 5) (Homo sapiens, UniProt Q4KMQ2).
T1 construct: expressed in transfected cells; host or cells: Fischer rat thyroid (FRT) cells
T1 sequence (Q4KMQ2 1-931 isoform Q4KMQ2-2): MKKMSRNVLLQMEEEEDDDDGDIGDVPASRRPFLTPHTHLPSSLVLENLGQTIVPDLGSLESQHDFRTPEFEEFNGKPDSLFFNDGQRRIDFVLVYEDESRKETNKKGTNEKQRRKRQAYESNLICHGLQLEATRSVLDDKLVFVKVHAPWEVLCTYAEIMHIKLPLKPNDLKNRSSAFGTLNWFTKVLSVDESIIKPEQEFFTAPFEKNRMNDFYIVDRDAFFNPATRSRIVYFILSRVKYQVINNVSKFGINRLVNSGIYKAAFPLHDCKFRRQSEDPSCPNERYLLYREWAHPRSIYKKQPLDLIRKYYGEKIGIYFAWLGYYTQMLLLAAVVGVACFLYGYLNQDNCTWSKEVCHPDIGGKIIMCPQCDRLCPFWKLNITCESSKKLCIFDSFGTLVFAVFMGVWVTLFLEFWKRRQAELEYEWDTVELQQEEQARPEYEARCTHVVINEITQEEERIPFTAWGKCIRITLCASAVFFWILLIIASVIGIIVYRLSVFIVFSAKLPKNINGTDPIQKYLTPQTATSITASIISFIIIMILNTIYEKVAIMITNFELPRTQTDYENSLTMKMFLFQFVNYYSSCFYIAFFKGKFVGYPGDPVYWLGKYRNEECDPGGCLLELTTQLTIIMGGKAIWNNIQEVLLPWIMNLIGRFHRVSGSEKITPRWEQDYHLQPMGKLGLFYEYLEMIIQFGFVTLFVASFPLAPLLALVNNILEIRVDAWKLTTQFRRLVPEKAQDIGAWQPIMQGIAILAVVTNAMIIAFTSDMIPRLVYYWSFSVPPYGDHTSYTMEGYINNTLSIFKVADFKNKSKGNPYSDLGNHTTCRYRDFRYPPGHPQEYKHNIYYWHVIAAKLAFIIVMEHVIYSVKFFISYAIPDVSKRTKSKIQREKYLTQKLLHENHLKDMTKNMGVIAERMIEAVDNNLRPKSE
Put plainly: Lact C2 assay (measuring phosphatidylserine externalization scramblase function). The experiment is classed as cell-based. The note with it: FRT, FRT cells expressing human ANO6 (variant 5), ionomycin 10 µM, Lact-C2-GFP fluorescence, average of three tests; for inhibition at 0.05 µM: compound 50 nM, read-out: % Inhibition 50 nM; for inhibition at 0.1 µM: compound 100 nM. An outline of the steps:
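Cells were pretreated 10 min with compound (50 nM, 100 nM, 1 µM; 1% DMSO), then given 10 µM ionomycin for 10 min. Surface phosphatidylserine was stained with 500 nM Lact-C2-GFP (10 min, 37 °C), fixed and imaged. Inhibition was scaled between untreated (100%) and ionomycin-alone (0%) wells.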

[1] abbreviates: compound 1 µM, read-out: % Inhibition 1 µM.

Regarding `Cc1cc2nc(-c3cccc(Nc4ccc(-c5cccnn5)cc4)c3)[nH]c2cc1F` [Example 114, 3-(6-fluoro-5-methyl-1H-benzo[d]imidazol-2-yl)-N-(4-pyridazin-3-ylphenyl)aniline], the inhibition – broadly, the change of the read-out against control, counted positive when it falls – at 0.05 µM is 30 to 60%. Besides, the inhibition at 1 µM under setting [1] is above 60%. As to `Clc1ccc2nc(-c3cccc(Nc4ccc(-c5ccccc5)nn4)c3)[nH]c2c1` [Example 12, N-[3-(6-chloro-1H-benzo[d]imidazol-2-yl)phenyl]-6-phenylpyridazin-3-amine], the inhibition at 0.05 µM was above 60% and the inhibition at 0.1 µM was above 60%. Further, the inhibition at 1 µM under setting [1] is above 60%. For `Cc1cc(-c2cccnn2)ccc1Nc1cccc(-c2nc3ccccc3[nH]2)c1` [Example 203, N-(3-(1H-benzo[d]imidazol-2-yl)phenyl)-2-methyl-4-(pyridazin-3-yl)aniline], the inhibition at 0.05 µM is 30 to 60%. Under setting [1], the inhibition at 1 µM is above 60%. As to `Clc1cc2[nH]c(-c3cccc(Nc4ncc(-c5cscn5)cn4)c3)nc2cn1` [Example 303, N-(3-(6-chloro-1H-imidazo[4,5-c]pyridin-2-yl)phenyl)-5-(thiazol-4-yl)pyrimidin-2-amine], under setting [1], the inhibition at 1 µM is above 60%. `FC(F)(F)c1ccc2nc(-c3cccc(Nc4ccc(-c5cnccn5)cc4)c3)[nH]c2c1` [Example 29, N-[4-(pyrazin-2-yl)phenyl]-3-[6-(trifluoromethyl)-1H-benzo[d]imidazol-2-yl]aniline]: the inhibition at 0.05 µM is above 60% and the inhibition at 0.1 µM was above 60%.

Consider `Fc1cccc(-c2cnc(Nc3cccc(-c4nc5ccc(C(F)(F)F)cc5[nH]4)c3)nc2)c1` [Example 17, 5-(3-Fluorophenyl)-N-{3-[6-(trifluoromethyl)-1H-benzo[d]imidazol-2-yl]phenyl}pyrimidin-2-amine], for which the inhibition at 0.05 µM is above 60% and the inhibition at 0.1 µM was above 60%. Moreover, under setting [1], the inhibition at 1 µM is above 60%. Take `Fc1ccc(-c2ccc(Nc3cccc(-c4nc5ccc(C(F)(F)F)cc5[nH]4)c3)cc2)nn1` [Example 264, N-(4-(6-fluoropyridazin-3-yl)phenyl)-3-(6-(trifluoromethyl)-1H-benzo[d]imidazol-2-yl) aniline]: the inhibition at 0.05 µM was above 60%. For the molecule `c1ccc(COc2ccc3nc(-c4cccc(Nc5ccc(-c6cccnn6)cc5)c4)[nH]c3c2)cc1` [Example 222, 3-(6-(benzyloxy)-1H-benzo[d]imidazol-2-yl)-N-(4-(pyridazin-3-yl)phenyl)aniline], the inhibition at 0.05 µM is above 60%. For the same molecule, under setting [1], the inhibition at 1 µM was above 60%. As to `Cc1noc(-c2ccc3nc(-c4cccc(Nc5ccc(-c6cccnn6)cc5)c4)[nH]c3c2)n1` [Example 93, 3-(6-(3-methyl-1,2,4-oxadiazol-5-yl)-1H-benzo[d]imidazol-2-yl)-N-(4-(pyridazin-3-yl)phenyl)aniline], the inhibition at 0.05 µM is 30 to 60%. Moreover, the inhibition at 1 µM under setting [1] was above 60%. In the same order, the values of `FC(F)(F)c1cc2[nH]c(-c3cccc(Nc4ncc(-c5ccccn5)cn4)c3)nc2cn1` [Example 242, 5-(pyridin-2-yl)-N-(3-(6-(trifluoromethyl)-1H-imidazo[4,5-c]pyridin-2-yl)phenyl)pyrimidin-2-amine] are above 60% and above 60%.

Regarding `Fc1cccc2nc(-c3cccc(Nc4ncc(-c5cccnn5)cn4)c3)[nH]c12` [Example 290, N-(3-(7-fluoro-1H-benzo[d]imidazol-2-yl)phenyl)-5-(pyridazin-3-yl)pyrimidin-2-amine], under setting [1], the inhibition at 1 µM was in the range of 30 to 60%.

For the molecule `FC(F)(F)c1cc2[nH]c(-c3cccc(Nc4ccc(-c5ccncn5)cc4)c3)nc2cn1` [Example 86, N-(4-pyrimidin-4-ylphenyl)-3-[6-(trifluoromethyl)-1H-imidazo[4,5-c]pyridin-2-yl]aniline], the inhibition at 1 µM under setting [1] is above 60%.

Regarding `FC(F)(F)c1cnc2nc(-c3cccc(Nc4ncc(-c5ccccn5)cn4)c3)[nH]c2c1` [Example 243, 5-(pyridin-2-yl)-N-(3-(6-(trifluoromethyl)-1H-imidazo[4,5-b]pyridin-2-yl)phenyl)pyrimidin-2-amine], the inhibition at 0.05 µM was 30 to 60%. Under setting [1], the inhibition at 1 µM was above 60%. Turning to `c1ccc(-c2cnc(Nc3cccc(-c4nc5ccccc5[nH]4)c3)cn2)nc1` [Example 276, N-(3-(1H-benzo[d]imidazol-2-yl)phenyl)-5-(pyridin-2-yl)pyrazin-2-amine], the inhibition at 0.05 µM is above 60%.

With `Fc1cc2nc(-c3cccc(Nc4ccc(-c5cccnn5)cc4)c3)[nH]c2cc1F` [Example 81, 3-(5,6-difluoro-1H-benzo[d]imidazol-2-yl)-N-(4-pyridazin-3-ylphenyl)aniline], the inhibition at 0.05 µM is above 60%. Take `c1ccc(-c2cnc(Nc3cccc(-c4nc5ccccc5[nH]4)c3)nc2)nc1` [Example 44, N-(3-(1H-benzo[d]imidazol-2-yl)phenyl)-5-(pyridin-2-yl)pyrimidin-2-amine]: the inhibition at 0.05 µM is above 60% and the inhibition at 0.1 µM was above 60%. For `FC(F)(F)c1ccc2nc(-c3cccc(Nc4ncc(-c5cccnn5)cn4)c3)[nH]c2c1` [Example 52, 5-(pyridazin-3-yl)-N-(3-(6-(trifluoromethyl)-1H-benzo[d]imidazol-2-yl)phenyl)pyrimidin-2-amine], the inhibition at 0.05 µM is above 60% and the inhibition at 0.1 µM is above 60%. As for `Fc1ccccc1-c1ccc(Nc2cccc(-c3nc4ccccc4[nH]3)c2)cc1` [Example 322, N-(3-(1H-benzo[d]imidazol-2-yl)phenyl)-2'-fluoro-[1,1'-biphenyl]-4-amine], the inhibition at 1 µM under setting [1] is above 60%. For `FC(F)(F)c1ccc2nc(-c3cccc(Nc4ccc(-c5ccccc5)cn4)c3)[nH]c2c1` [Example 15, 5-Phenyl-N-{3-[6-(trifluoromethyl)-1H-benzo[d]imidazol-2-yl]phenyl}pyridin-2-amine], the inhibition at 0.05 µM was above 60% and the inhibition at 0.1 µM is above 60%. Besides, the inhibition at 1 µM under setting [1] was above 60%. Regarding `FC(F)(F)c1cc2[nH]c(-c3cccc(Nc4ncc(-c5cccnn5)cn4)c3)nc2cn1` [Example 103, 5-pyridazin-3-yl-N-[3-[6-(trifluoromethyl)-1H-imidazo[4,5-c]pyridin-2-yl]phenyl]pyrimidin-2-amine], the inhibition at 1 µM under setting [1] is above 60%. Turning to `c1ccc(-c2ccc(Nc3cccc(-c4nc5ccccc5[nH]4)c3)nn2)nc1` [Example 255, N-(3-(1H-benzo[d]imidazol-2-yl)phenyl)-6-(pyridin-2-yl)pyrimidin-3-amine], where the note is “read-out: % Inhibition 1 µM, compound 1 µM”, the inhibition at 1 µM is above 60%.

Regarding `c1cc(Nc2ccc(-c3ccncn3)cc2)cc(-c2nc3ccccc3[nH]2)c1` [Example 22, N-[3-(1H-benzo[d]imidazol-2-yl)phenyl]-4-(pyrimidin-4-yl)aniline], the inhibition at 0.05 µM is above 60% and the inhibition at 0.1 µM is above 60%. For the same molecule, the inhibition at 1 µM under setting [1] is above 60%. In the case of `Fc1cccc(-c2cnc(Nc3cccc(-c4nc5ccccc5[nH]4)c3)nc2)n1` [Example 259, N-(3-(1H-benzo[d]imidazol-2-yl)phenyl)-5-(6-fluoropyridin-2-yl) pyrimidin-2-amine], the inhibition at 0.05 µM fell in the range of 30 to 60%. The inhibition at 1 µM under setting [1] is above 60%. The like results for `FC(F)(F)Oc1ccc2nc(-c3cccc(Nc4ncc(-c5ccccn5)cn4)c3)[nH]c2c1` [Example 118, 5-(2-pyridyl)-N-[3-[6-(trifluoromethoxy)-1H-benzo[d]imidazol-2-yl]phenyl]pyrimidin-2-amine] were, in that order, above 60% and above 60%.

For the molecule `FC(F)(F)c1cc2[nH]c(-c3cccc(Nc4ccc(-c5ccccn5)cn4)c3)nc2cn1` [Example 238, N-(3-(6-(trifluoromethyl)-1H-imidazo [4,5-c]pyridin-2-yl)phenyl)-[2,3'-bipyridin]-6'-amine], the inhibition at 0.05 µM was above 60%. Also, the inhibition at 1 µM under setting [1] is above 60%. As to `Fc1cc2[nH]c(-c3cccc(Nc4ccc(-c5cccnn5)cc4)c3)nc2cc1C(F)(F)F` [Example 104, 3-[6-fluoro-5-(trifluoromethyl)-1H-benzo[d]imidazol-2-yl]-N-(4-pyridazin-3-ylphenyl)aniline], the inhibition at 0.05 µM was above 60%. Under setting [1], the inhibition at 1 µM is above 60%.
